Assay results taken from US4925855A, “Imidazole derivatives and antimycotics containing them” (CL Pharma Aktiengesellschaft, priority 1986, dated 1990).
Converted amounts (≈) assume the structure as drawn. Values belong to the compound of their own block, whether it stands above or below them.

Columns and labels:
Assay type in all cases: cell-based
[1] = test system: Trichophyton mentagrophytes; assay: MIC in serial dilution test, Trichophyton mentagrophytes; conditions: 336 h, pH 6, Trichophyton mentagrophytes, pH 6.0, 22° C., 14 days, read-out: MIC values, Tri. me.
Description: (§1) The antimycotic activities of the compounds were measured by in vitro determination of the minimum inhibitory concentration (MIC) for yeasts, molds and dermatophytes.
(§2) 6 dermatophytes, 2 yeasts and 4 molds were used for testing with fungi, as follows:
Trichophyton mentagrophytes
(§3) The minimum inhibitory concentration (MIC) was determined in serial dilution tests in test tubes. The volume of the liquid nutrient medium in each test tube was 4.5 ml.
(§4) The substances were dissolved in DMSO and diluted with sterile distilled water to 10 concentrations (100, 50, 25, 12.5, 6.25, 3.12, 1.56, 0.78, 0.39 and 0.19 μg/ml). 0.5 ml of each of these dilution steps was added to the liquid nutrient medium. Thus, a constant concentration of solvent in all the nutrient media was ensured, irrespective of the active compound concentration.
(§5) A comparison solution which contained only the solvent in appropriate concentration was included when carrying out each of the tests.
(§6) The individual strains were maintained on Sabouraud/beerwort agar slants and, before they were used in a test, they underwent a passage on a modified Sabouraud liquid nutrient medium. The strains were then harvested, washed and converted into a suspension of McFaerland 3 in the case of yeasts and molds and of McFaerland 4-5 in the case of dermatophytes.
(§7) The amount of material inoculated (inoculum) was 100 μl/test tube (inoculated densities: yeasts […] of the liquid nutrient medium was 6.0. After inoculation had taken place the fungi were incubated at 22° C. for 14 days.
(§8) The MIC was then determined. The concentration step at which growth was no longer visible on macroscopic inspection was used for the determination of the MIC. The comparison substance used was 1-(2-(2,4-dichlorophenyl)-2-(2,4-dichlorophenylmethoxy)ethyl)-1H-imidazoleas nitrate (compound A).

Trichophyton rubrum = assay: MIC in serial dilution test, Trichophyton rubrum; conditions: 336 h, pH 6, Trichophyton rubrum, pH 6.0, 22° C., 14 days, read-out: MIC values, Tri. ru.
Description: as §1, §2
Trichophyton rubrum (Tri.ru.)
as §3, §4, §5, §6, §7, §8

Trichophyton verrucosum = assay: MIC in serial dilution test, Trichophyton verrucosum; conditions: 336 h, pH 6, Trichophyton verrucosum, pH 6.0, 22° C., 14 days, read-out: MIC values, Tri. ve.
Description: as §1, §2
Trichophyton verrucosum (Tri.ve.)
as §3, §4, §5, §6, §7, §8

Microsporum canis = assay: MIC in serial dilution test, Microsporum canis; conditions: 336 h, pH 6, Microsporum canis, pH 6.0, 22° C., 14 days, read-out: MIC values, Mi. can
Description: as §1, §2
Microsporum canis (Mi.can.)
as §3, §4, §5, §6, §7, §8

Epidermophyton floccosum = assay: MIC in serial dilution test, Epidermophyton floccosum; conditions: 336 h, pH 6, Epidermophyton floccosum, pH 6.0, 22° C., 14 days, read-out: MIC values, Ep. flo
Description: as §1, §2
Epidermophyton floccosum
as §3, §4, §5, §6, §7, §8

Microsporum gypseum = assay: MIC in serial dilution test, Microsporum gypseum; conditions: Nannizzia gypsea, 336 h; Microsporum gypseum; pH 6.0, 22° C., 14 days; read-out: MIC values, Mi. gyp
Description: as §1, §2
Microsporum gypseum (Mi.gyp.)
as §3, §4, §5, §6, §7, §8

Candida albicans = assay: MIC in serial dilution test, Candida albicans; conditions: 336 h, pH 6.0, 22° C., 14 days, read-out: MIC values, C. alb
Description: as §1, §2
Candida albicans (C.alb.)
as §3, §4, §5, §6, §7, §8

Candida tropicalis = assay: MIC in serial dilution test, Candida tropicalis; conditions: 336 h, pH 6, Candida tropicalis, pH 6.0, 22° C., 14 days, read-out: MIC values, C. trop
Description: as §1, §2
Candida tropicalis (C.trop.)
as §3, §4, §5, §6, §7, §8

Aspergillus fumigatus = assay: MIC in serial dilution test, Aspergillus fumigatus; conditions: 20160 min, pH 6
Description: as §1, §2
Aspergillus fumigatus (Asp.fu.)
as §3, §4, §5, §6, §7, §8

Mucor mucedo plus = assay: MIC in serial dilution test, Mucor mucedo plus; conditions: 336 h, pH 6, Mucor mucedo plus, pH 6.0, 22° C., 14 days, read-out: MIC values, Mu. mu+
Description: as §1, §2
Mucor mucedo plus (Mu.mu^+)
as §3, §4, §5, §6, §7, §8

Mucor mucedo minus = assay: MIC in serial dilution test, Mucor mucedo minus; conditions: 336 h, pH 6, Mucor mucedo minus, pH 6.0, 22° C., 14 days, read-out: MIC values, Mu. mu-
Description: as §1, §2
Mucor mucedo minus (Mu.mu^-)
as §3, §4, §5, §6, §7, §8

Absidia ramosa = assay: MIC in serial dilution test, Absidia ramosa; conditions: Lichtheimia ramosa, 336 h, pH 6, Absidia ramosa; pH 6.0, 22° C., 14 days; read-out: MIC values, Abs. ra.
Description: as §1, §2
Absidia ramosa (Abs.ra.)
as §3, §4, §5, §6, §7, §8

Structure (SMILES): Clc1ccc(SCCCNC(Cn2ccnc2)c2ccc(Cl)cc2Cl)cc1 (stereo not shown) [compound 20, 1-(2-(2,4-Dichlorophenyl)-2-(3-(4-chlorophenylthio)-propylamino)ethyl)-1H-imidazole]
MIC values, Asp. fu. (Aspergillus fumigatus): 3,12 μg/ml

Structure (SMILES): Clc1ccc(C(Cn2ccnc2)NCCCSc2c(Cl)cccc2Cl)c(Cl)c1 (stereo not shown) [compound 26]
MIC values, Asp. fu. (Aspergillus fumigatus): 12,5 μg/ml

Structure (SMILES): Clc1ccc(SCCCNC(Cn2ccnc2)c2cccs2)cc1 (stereo not shown) [compound 31]
MIC [1]: 12.5 µg/mL (≈ 33.1 µM)
MIC (Trichophyton rubrum): 3.12 µg/mL (≈ 8.25 µM)
MIC (Trichophyton verrucosum): 3.12 µg/mL (≈ 8.25 µM)
MIC (Microsporum canis): 25 µg/mL (≈ 66.1 µM)
MIC (Epidermophyton floccosum): 3.12 µg/mL (≈ 8.25 µM)
MIC (Microsporum gypseum): 6.25 µg/mL (≈ 16.5 µM)
MIC (Candida albicans): 12.5 µg/mL (≈ 33.1 µM)
MIC (Candida tropicalis): 25 µg/mL (≈ 66.1 µM)
MIC values, Asp. fu. (Aspergillus fumigatus): 12,5 μg/ml
MIC (Mucor mucedo plus): 12.5 µg/mL
MIC (Mucor mucedo minus): 12.5 µg/mL (≈ 33.1 µM)
MIC (Absidia ramosa): 2.5 µg/mL (≈ 6.61 µM)

Structure (SMILES): CN(CCCSCc1ccc(Cl)cc1)C(Cn1ccnc1)c1ccc(Cl)cc1Cl (stereo not shown) [compound 36, 1-(2-(2,4-Dichlorophenyl)-2-(N-methyl-3-(4-chlorobenzylthio)propylamino)ethyl)-1H-imidazole]
MIC values, Asp. fu. (Aspergillus fumigatus): 25,0 μg/ml

Structure (SMILES): Clc1ccc(SCCCCCNC(Cn2ccnc2)c2ccc(Cl)cc2Cl)cc1 (stereo not shown) [compound 38]
MIC values, Asp. fu. (Aspergillus fumigatus): 6,25 μg/ml

Further lines, results first:

MIC [1]: 6.25 µg/mL (≈ 14.7 µM)
MIC (Trichophyton rubrum): 0.78 µg/mL (≈ 1.84 µM)
MIC (Trichophyton verrucosum): 0.39 µg/mL (≈ 0.919 µM)
MIC (Microsporum canis): 6.25 µg/mL (≈ 14.7 µM)
MIC (Epidermophyton floccosum): 3.12 µg/mL (≈ 7.35 µM)
MIC (Microsporum gypseum): 3.12 µg/mL (≈ 7.35 µM)
MIC (Candida albicans): 12.5 µg/mL (≈ 29.5 µM)
MIC (Candida tropicalis): 6.25 µg/mL (≈ 14.7 µM)
MIC values, Asp. fu. (Aspergillus fumigatus): 12,5 μg/ml
MIC (Mucor mucedo plus): 12.5 µg/mL
MIC (Mucor mucedo minus): 12.5 µg/mL (≈ 29.5 µM)
MIC (Absidia ramosa): 6.25 µg/mL (≈ 14.7 µM)
Structure (SMILES): Fc1ccc(SCCCNC(Cn2ccnc2)c2ccc(Cl)cc2Cl)cc1 (stereo not shown) [compound 18]

MIC (Microsporum canis): 1.56 µg/mL (≈ 3.21 µM)
MIC (Candida tropicalis): 1.56 µg/mL (≈ 3.21 µM)
MIC values, Asp. fu. (Aspergillus fumigatus): 1,56 μg/ml
Structure (SMILES): Clc1ccc(C(Cn2ccnc2)NCCCSc2ccc(Br)cc2)c(Cl)c1 (stereo not shown) [compound 23, 1-(2-(2,4-dichlorophenyl)-2-(3-(4-bromophenylthio)propylamino)ethyl)-1H-imidazole]

MIC values, Asp. fu. (Aspergillus fumigatus): 0,39 μg/ml
Structure (SMILES): Clc1ccc(C(Cn2ccnc2)NCCCSc2ccc(Br)cc2)c(Cl)c1 (stereo not shown) [compound 24]

MIC values, Asp. fu. (Aspergillus fumigatus): 0,78 μg/ml
Structure (SMILES): Clc1ccc(C(Cn2ccnc2)NCCCSc2ccc3ccccc3c2)c(Cl)c1 (stereo not shown) [compound 27]

MIC values, Asp. fu. (Aspergillus fumigatus): 3,12 μg/ml
Structure (SMILES): Clc1ccc(SCCCNC(Cn2ccnc2)c2cccc3ccccc23)cc1 (stereo not shown) [compound 41]
